Values quoted from earlier work, collected in US20210198372A1, “METHODS FOR DOSING AND FOR MODULATION OF GENETICALLY ENGINEERED CELLS” (Juno Therapeutics, Inc., priority 2017, published 2021).

Conditions: equivalence in terms of potency for various glucocorticoids; route (IV or PO; IV; none)

SMILES | Equivalency Potency
C[C@]12CCC(=O)C=C1CC[C@@H]1[C@@H]2[C@@H](O)C[C@@]2(C)[C@H]1CC[C@]2(O)C(=O)CO [Hydrocortisone] | 20
C[C@]12C=CC(=O)C=C1CC[C@@H]1[C@@H]2[C@@H](O)C[C@@]2(C)[C@H]1CC[C@]2(O)C(=O)CO [Prednisolone] | 5
C[C@H]1C[C@@H]2[C@H]([C@@H](O)C[C@@]3(C)[C@H]2CC[C@]3(O)C(=O)COC(=O)CCC(=O)O)[C@@]2(C)C=CC(=O)C=C12 [Methylprednisolone sodium succinate] | 4
